In BindingDB's records for doi:10.1021/jm00061a004 (1993):

Legend:
Cytochrome P450 2D6 [1] = target: T1, Cytochrome P450 2D6 (Homo sapiens, UniProt P10635); assay: Inhibition of partially purified cytochrome P450 2D6 1'-hydroxybufuralol formation
Cytochrome P450 2D6 [2] = target: T1, Cytochrome P450 2D6; assay: Inhibitory constant for cytochrome P450 2D6
CYP2D6 = CYP2D6 (Homo sapiens, UniProt P10635); assay: Apparent inhibitory constant (Ki) for Bufuralol 1'-hydroxylation by human liver microsomes; conditions: probe bufuralol (1'-hydroxylation)
Chain of CYP2D6 (P10635 whole entry): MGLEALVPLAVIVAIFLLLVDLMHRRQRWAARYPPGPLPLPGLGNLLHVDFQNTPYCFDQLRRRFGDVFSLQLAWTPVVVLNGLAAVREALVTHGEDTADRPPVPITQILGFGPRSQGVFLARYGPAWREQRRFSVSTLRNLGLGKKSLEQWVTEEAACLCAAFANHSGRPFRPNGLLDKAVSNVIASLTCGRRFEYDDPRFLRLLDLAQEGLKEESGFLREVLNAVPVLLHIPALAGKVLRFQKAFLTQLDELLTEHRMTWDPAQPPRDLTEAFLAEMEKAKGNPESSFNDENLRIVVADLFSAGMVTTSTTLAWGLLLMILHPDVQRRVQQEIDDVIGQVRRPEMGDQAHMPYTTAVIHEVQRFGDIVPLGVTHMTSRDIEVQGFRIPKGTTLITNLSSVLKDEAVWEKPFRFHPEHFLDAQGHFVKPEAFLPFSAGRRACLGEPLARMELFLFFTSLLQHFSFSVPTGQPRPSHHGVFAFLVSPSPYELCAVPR

T1 sequence (P10635 whole entry): as above

`COC(=O)C1=CO[C@@H](C)[C@H]2CN3CCc4c([nH]c5ccccc45)[C@@H]3C[C@H]12` gave a Ki (Cytochrome P450 2D6 [1]) of 5.7 nM, a Ki (Cytochrome P450 2D6 [2]) of 3.3 nM and a Ki (CYP2D6) of 4.6 nM.
